Measurements reported in patent US10227344B2, “CK2 inhibitors, compositions and methods thereof” (Polaris Pharmaceuticals, Inc., priority 2016, dated 2019).

Columns and labels:
Assay type in all cases: cell-based
[1] = tested on: LnCap; assay: Cancer cell panel, cell viability (resazurin): Prostate, LnCap; settings: 72 hours, labelled drug combined with Example 3
Experimental: (§1) Cells were plated in 96-well plates and treated for 72 hours with a serially diluted CK2 inhibitor or anti-cancer drug or their combination. The suspension cell lines were treated right after plating, while the adherent cells were allowed to attach overnight prior to the start of the treatment.
(§2) Cell viability was determined by adding resazurin to cell cultures and measuring fluorescence with a plate reader. Relative cell viability was calculated by dividing the cell viability signal from a test sample by that of a non-treated control. […] Bliss Independence and Highest Single Agent models were used to determine if there is synergy, additivity or antagonism between the CK2 inhibitor and an anti-cancer drug.

[2] = tested on: NAMALWA; assay: Cancer cell panel, cell viability (resazurin): Burkitt's Lymphoma, NAMALWA; settings: 72 hours, labelled drug combined with Example 3
Experimental: as §1, §2

[3] = tested on: H460; assay: Cancer cell panel, cell viability (resazurin): NSCLC, H460; settings: 72 hours, labelled drug combined with Example 3
[4] = tested on: A549; assay: Cancer cell panel, cell viability (resazurin): NSCLC, A549; settings: 72 hours, labelled drug combined with Example 3
[5] = tested on: DLD-1; assay: Cancer cell panel, cell viability (resazurin): Colon, DLD-1; settings: DLD-1 (Colon), 72 hours; labelled drug combined with Example 3
Experimental: as §1, §2

[6] = tested on: LoVo; assay: Cancer cell panel, cell viability (resazurin): Colon, LoVo; settings: 72 hours, labelled drug combined with Example 3
Experimental: as §1, §2

[7] = tested on: RPMI8226; assay: Cancer cell panel, cell viability (resazurin): multiple myeloma, RPMI8226; settings: 72 hours, labelled drug combined with Example 3
Experimental: as §1, §2

[8] = tested on: Ramos; assay: Cancer cell panel, cell viability (resazurin): Burkitt's Lymphoma, Ramos; settings: 72 hours, labelled drug combined with Example 3
[9] = tested on: Colo205; assay: Cancer cell panel, cell viability (resazurin): Colon, Colo205; settings: 72 hours, labelled drug combined with Example 3
[10] = tested on: K562; assay: Cancer cell panel, cell viability (resazurin): Leukemia, K562; settings: 72 hours, labelled drug combined with Example 3
[11] = tested on: BT-474; assay: Cancer cell panel, cell viability (resazurin): Breast, BT-474; settings: BT-474 (Breast), 72 hours; labelled drug combined with Example 3
Experimental: as §1, §2

[12] = tested on: SK-MEL-3; assay: Cancer cell panel, cell viability (resazurin): Melanoma, SK-MEL-3; settings: SK-MEL-3 (Melanoma), 72 hours; labelled drug combined with Example 3
Experimental: as §1, §2

[13] = tested on: Caov-3; assay: Cancer cell panel, cell viability (resazurin): Ovarian, Caov-3; settings: Caov-3 (Ovarian), 72 hours; labelled drug combined with Example 3
Experimental: as §1, §2

[14] = tested on: H1299; assay: Cancer cell panel, cell viability (resazurin): NSCLC, H1299; settings: 72 hours, labelled drug combined with Example 3
[15] = tested on: SK-MEL-24; assay: Cancer cell panel, cell viability (resazurin): Melanoma, SK-MEL-24; settings: SK-MEL-24 (Melanoma), 72 hours; labelled drug combined with Example 3
Experimental: as §1, §2

[16] = tested on: MOLT4; assay: Cancer cell panel, cell viability (resazurin): Leukemia, MOLT4; settings: 72 hours, labelled drug combined with Example 3
Experimental: as §1, §2

[17] = tested on: A375; assay: Cancer cell panel, cell viability (resazurin): Melanoma, A375; settings: 72 hours, labelled drug combined with Example 3
Experimental: as §1, §2

[18] = tested on: H23; assay: Cancer cell panel, cell viability (resazurin): NSCLC, H23; settings: 72 hours, labelled drug combined with Example 3
[19] = tested on: BxPC3; assay: Cancer cell panel, cell viability (resazurin): Pancreatic, BxPC3; settings: 72 hours, labelled drug combined with Example 3
Experimental: as §1, §2

[20] = tested on: HCT116; assay: Cancer cell panel, cell viability (resazurin): Colon, HCT116; settings: 72 hours, labelled drug combined with Example 3
[21] = tested on: MDA-MB-157; assay: Cancer cell panel, cell viability (resazurin): Breast, MDA-MB-157; settings: MDA-MB-157 (Breast), 72 hours; labelled drug combined with Example 3
[22] = tested on: Raji; assay: Cancer cell panel, cell viability (resazurin): Burkitt's Lymphoma, Raji; settings: 72 hours, labelled drug combined with Example 3
Experimental: as §1, §2

[23] = tested on: SKOV-3; assay: Cancer cell panel, cell viability (resazurin): Ovarian, SKOV-3; settings: SKOV-3 (Ovarian), 72 hours; labelled drug combined with Example 3
[24] = tested on: 786-O; assay: Cancer cell panel, cell viability (resazurin): Renal, 786-O; settings: 786-O (Renal), 72 hours; labelled drug combined with Example 3
[25] = tested on: WM-115; assay: Cancer cell panel, cell viability (resazurin): Melanoma, WM-115; settings: WM-115 (Melanoma), 72 hours; labelled drug combined with Example 3
Experimental: as §1, §2

[26] = tested on: H1975; assay: Cancer cell panel, cell viability (resazurin): NSCLC, H1975; settings: 72 hours, labelled drug combined with Example 3
[27] = tested on: U266; assay: Cancer cell panel, cell viability (resazurin): multiple myeloma, U266; settings: 72 hours, labelled drug combined with Example 3
Experimental: as §1, §2

[28] = tested on: ZR-75-1; assay: Cancer cell panel, cell viability (resazurin): Breast, ZR-75-1; settings: ZR-75-1 (Breast), 72 hours; labelled drug combined with Example 3
[29] = tested on: MeWO; assay: Cancer cell panel, cell viability (resazurin): Melanoma, MeWO; settings: 72 hours, labelled drug combined with Example 3
[30] = tested on: Daudi; assay: Cancer cell panel, cell viability (resazurin): Burkitt's Lymphoma, Daudi; settings: 72 hours, labelled drug combined with Example 3
[31] = tested on: HL60; assay: Cancer cell panel, cell viability (resazurin): Leukemia, HL60; settings: 72 hours, labelled drug combined with Example 3

CC[C@]1(O)C[C@@H]2CN(CCc3c([nH]c4ccccc34)[C@@](C(=O)OC)(c3cc4c(cc3OC)N(C)[C@H]3[C@@](O)(C(=O)OC)[C@H](OC(C)=O)[C@]5(CC)C=CCN6CC[C@]43[C@@H]65)C2)C1 [Vinblastine, vinblastine]
synergy, additivity or antagonism of the combination of Example 3 with the anti-cancer drug [1]: + (Additive relative to each agent alone (CI = 0.9-1 by Bliss Independence Model and <0.9 by Highest Single Agent Model)) | synergy, additivity or antagonism of the combination of Example 3 with the anti-cancer drug [2]: + (Additive relative to each agent alone (CI = 0.9-1 by Bliss Independence Model and <0.9 by Highest Single Agent Model)) | synergy, additivity or antagonism of the combination of Example 3 with the anti-cancer drug [3]: + (Additive relative to each agent alone (CI = 0.9-1 by Bliss Independence Model and <0.9 by Highest Single Agent Model)) | synergy, additivity or antagonism of the combination of Example 3 with the anti-cancer drug [4]: + + + (Synergy relative to each agent alone (CI = 0.4-0.74 by Bliss Independence Model)) | synergy, additivity or antagonism of the combination of Example 3 with the anti-cancer drug [5]: + + + + (Strong synergy relative to each agent alone (CI < 0.4 by Bliss Independence Model)) | synergy, additivity or antagonism of the combination of Example 3 with the anti-cancer drug [6]: + (Additive relative to each agent alone (CI = 0.9-1 by Bliss Independence Model and <0.9 by Highest Single Agent Model)) | synergy, additivity or antagonism of the combination of Example 3 with the anti-cancer drug [7]: + (Additive relative to each agent alone (CI = 0.9-1 by Bliss Independence Model and <0.9 by Highest Single Agent Model)) | synergy, additivity or antagonism of the combination of Example 3 with the anti-cancer drug [8]: + (Additive relative to each agent alone (CI = 0.9-1 by Bliss Independence Model and <0.9 by Highest Single Agent Model)) | synergy, additivity or antagonism of the combination of Example 3 with the anti-cancer drug [9]: + + + (Synergy relative to each agent alone (CI = 0.4-0.74 by Bliss Independence Model)) | synergy, additivity or antagonism of the combination of Example 3 with the anti-cancer drug [10]: + (Additive relative to each agent alone (CI = 0.9-1 by Bliss Independence Model and <0.9 by Highest Single Agent Model)) | synergy, additivity or antagonism of the combination of Example 3 with the anti-cancer drug [11]: + (Additive relative to each agent alone (CI = 0.9-1 by Bliss Independence Model and <0.9 by Highest Single Agent Model)) | synergy, additivity or antagonism of the combination of Example 3 with the anti-cancer drug [12]: + (Additive relative to each agent alone (CI = 0.9-1 by Bliss Independence Model and <0.9 by Highest Single Agent Model)) | synergy, additivity or antagonism of the combination of Example 3 with the anti-cancer drug [13]: + (Additive relative to each agent alone (CI = 0.9-1 by Bliss Independence Model and <0.9 by Highest Single Agent Model)) | synergy, additivity or antagonism of the combination of Example 3 with the anti-cancer drug [14]: + (Additive relative to each agent alone (CI = 0.9-1 by Bliss Independence Model and <0.9 by Highest Single Agent Model)) | synergy, additivity or antagonism of the combination of Example 3 with the anti-cancer drug [15]: + (Additive relative to each agent alone (CI = 0.9-1 by Bliss Independence Model and <0.9 by Highest Single Agent Model)) | synergy, additivity or antagonism of the combination of Example 3 with the anti-cancer drug [16]: − (Slightly antagonistic relative to each agent alone (CI = 1.1-1.2 by Highest Single Agent Model)) | synergy, additivity or antagonism of the combination of Example 3 with the anti-cancer drug [17]: + (Additive relative to each agent alone (CI = 0.9-1 by Bliss Independence Model and <0.9 by Highest Single Agent Model)) | synergy, additivity or antagonism of the combination of Example 3 with the anti-cancer drug [18]: + + (Slight synergy relative to each agent alone (CI = 0.75-0.9 by Bliss Independence Model)) | synergy, additivity or antagonism of the combination of Example 3 with the anti-cancer drug [19]: + + + (Synergy relative to each agent alone (CI = 0.4-0.74 by Bliss Independence Model)) | synergy, additivity or antagonism of the combination of Example 3 with the anti-cancer drug [20]: + (Additive relative to each agent alone (CI = 0.9-1 by Bliss Independence Model and <0.9 by Highest Single Agent Model)) | synergy, additivity or antagonism of the combination of Example 3 with the anti-cancer drug [21]: + + (Slight synergy relative to each agent alone (CI = 0.75-0.9 by Bliss Independence Model)) | synergy, additivity or antagonism of the combination of Example 3 with the anti-cancer drug [22]: + (Additive relative to each agent alone (CI = 0.9-1 by Bliss Independence Model and <0.9 by Highest Single Agent Model)) | synergy, additivity or antagonism of the combination of Example 3 with the anti-cancer drug [23]: + (Additive relative to each agent alone (CI = 0.9-1 by Bliss Independence Model and <0.9 by Highest Single Agent Model)) | synergy, additivity or antagonism of the combination of Example 3 with the anti-cancer drug [24]: + + + (Synergy relative to each agent alone (CI = 0.4-0.74 by Bliss Independence Model)) | synergy, additivity or antagonism of the combination of Example 3 with the anti-cancer drug [25]: + (Additive relative to each agent alone (CI = 0.9-1 by Bliss Independence Model and <0.9 by Highest Single Agent Model)) | synergy, additivity or antagonism of the combination of Example 3 with the anti-cancer drug [26]: + (Additive relative to each agent alone (CI = 0.9-1 by Bliss Independence Model and <0.9 by Highest Single Agent Model)) | synergy, additivity or antagonism of the combination of Example 3 with the anti-cancer drug [27]: + (Additive relative to each agent alone (CI = 0.9-1 by Bliss Independence Model and <0.9 by Highest Single Agent Model)) | synergy, additivity or antagonism of the combination of Example 3 with the anti-cancer drug [28]: + (Additive relative to each agent alone (CI = 0.9-1 by Bliss Independence Model and <0.9 by Highest Single Agent Model)) | synergy, additivity or antagonism of the combination of Example 3 with the anti-cancer drug [29]: + (Additive relative to each agent alone (CI = 0.9-1 by Bliss Independence Model and <0.9 by Highest Single Agent Model)) | synergy, additivity or antagonism of the combination of Example 3 with the anti-cancer drug [30]: + (Additive relative to each agent alone (CI = 0.9-1 by Bliss Independence Model and <0.9 by Highest Single Agent Model)) | synergy, additivity or antagonism of the combination of Example 3 with the anti-cancer drug [31]: + + (Slight synergy relative to each agent alone (CI = 0.75-0.9 by Bliss Independence Model))
